Like-named read-outs stand apart in the source and are kept apart here.
System: recombinant NL4-3 virus (Renilla luciferase) in MT-2 cells
Assay: HIV cell culture assay (antiviral activity, luciferase readout in infected MT-2 cells)
Format: cell-based
Conditions: Renilla
Summary of the method: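 Nef-deleted NL4-3 carrying Renilla luciferase, produced by 293T transfection, used to infect MT-2 cells for 4–5 days with serial compound dilutions. Live-cell luciferase signal read as infection marker; EC50 from exponential median-effect equation.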

[1] = NL43, read-out: Activity, antiviral activity class, recombinant NL4-3 Renilla luciferase virus in MT-2 cells
[2] = NL43, recombinant NL4-3 Renilla luciferase virus in MT-2 cells

SMILES | EC50 [1] [nM] | EC50 [2] [nM]
Cc1ccccc1S(=O)(=O)NC(=O)N[C@@H](Cc1ccccc1)C(=O)N(C)c1ccc2c(c1)CCC2 [Example 207, (S)—N-(2,3-dihydro-1H-inden-5-yl)-N-methyl-3-phenyl-2-(3-(o-tolylsulfonyl)ureido)propanamide] | < 100 | –
CN(C(=O)[C@H](Cc1ccccc1)NC(=O)NS(=O)(=O)c1ccccc1)c1ccc2c(c1)CCC2 [Example 208, (S)—N-(2,3-dihydro-1H-inden-5-yl)-N-methyl-3-phenyl-2-(3-(phenylsulfonyl)ureido)propanamide] | 100 to 1000 | –
Cc1ccccc1S(=O)(=O)NC(=O)N[C@@H](CCc1ccccc1)C(=O)N(C)c1ccc2c(c1)OCO2 [Example 209, (S)—N-(benzo[d][1,3]dioxol-5-yl)-N-methyl-4-phenyl-2-(3-(o-tolylsulfonyl)ureido)butanamide] | 10000 to 100000 | –
Cc1ccccc1S(=O)(=O)NC(=O)N[C@H](CCc1ccccc1)C(=O)N(C)c1ccc2c(c1)OCO2 [Example 210, (R)—N-(benzo[d][1,3]dioxol-5-yl)-N-methyl-4-phenyl-2-(3-(o-tolylsulfonyl)ureido)butanamide] | 10000 to 100000 | –
C=Cc1cccc(C[C@H](NC(=O)NS(=O)(=O)c2ccccc2C=C)C(=O)N(C)c2ccc(OC)cc2)c1 [Example 212, (S)—N-(4-methoxyphenyl)-N-methyl-3-(3-vinylphenyl)-2-(3-((2-vinylphenyl)sulfonyl)ureido)propanamide] | < 100 | 58
C=CCCOc1cccc(C[C@H](NC(=O)NS(=O)(=O)c2ccccc2C=C)C(=O)N(C)c2ccc(OC)cc2)c1 [Example 213, (S)-3-(3-(but-3-en-1-yloxy)phenyl)-N-(4-methoxyphenyl)-N-methyl-2-(3-((2-vinylphenyl)sulfonyl)ureido)propanamide] | 1000 to 10000 | 5070
CCN(C(=O)[C@H](Cc1ccccc1)NC(=O)NS(=O)(=O)c1cccc(-c2ccnn2CC(C)C)c1C)c1ccc(OC)cc1 [Example 214, (S)—N-ethyl-2-(3-((3-(1-isobutyl-1H-pyrazol-5-yl)-2-methylphenyl)sulfonyl)ureido)-N-(4-methoxyphenyl)-3-phenylpropanamide] | 100 to 1000 | 870
CCc1cccc(C[C@H](NC(=O)NS(=O)(=O)c2ccccc2CC)C(=O)N(C)c2ccc(OC)cc2)c1 [Example 215, (S)-3-(3-ethylphenyl)-2-(3-((2-ethylphenyl)sulfonyl)ureido)-N-(4-methoxyphenyl)-N-methylpropanamide] | 100 to 1000 | –
C=CCOc1ccc(N(C)C(=O)[C@H](Cc2ccccc2)NC(=O)NS(=O)(=O)c2ccccc2C)cc1 [Example 216, (S)—N-(4-(allyloxy)phenyl)-N-methyl-3-phenyl-2-(3-(o-tolylsulfonyl)ureido)propanamide] | < 100 | –
Cc1ccccc1S(=O)(=O)NC(=O)N[C@@H](Cc1ccccc1)C(=O)N(C)c1ccc(OCC(N)=O)cc1 [Example 217, (S)—N-(4-(2-amino-2-oxoethoxy)phenyl)-N-methyl-3-phenyl-2-(3-(o-tolylsulfonyl)ureido)propanamide] | 100 to 1000 | –
Cc1ccccc1S(=O)(=O)NC(=O)N[C@@H](Cc1ccccc1)C(=O)N(C)c1ccccc1 [Example CA-67, (S)—N-methyl-N, 3-diphenyl-2-(3-(o-tolylsulfonyl)ureido)propanamide] | 100 to 1000 | 490
CCN(C(=O)[C@H](Cc1ccccc1)NC(=O)NS(=O)(=O)c1ccccc1C)c1ccccc1 [Example CA-68, (S)—N-ethyl-N, 3-diphenyl-2-(3-(o-tolylsulfonyl)ureido)propanamide] | 100 to 1000 | –
Cc1ccccc1N(C)C(=O)[C@H](Cc1ccccc1)NC(=O)NS(=O)(=O)c1ccccc1C [Example CA-69, (S)—N-methyl-3-phenyl-N-(o-tolyl)-2-(3-(o-tolylsulfonyl)ureido)propanamide] | 1000 to 10000 | –
Cc1ccccc1S(=O)(=O)NC(=O)N[C@@H](Cc1ccccc1)C(=O)N(c1ccccc1)C(C)C [Example CA-70, (S)—N-isopropyl-N, 3-diphenyl-2-(3-(o-tolylsulfonyl)ureido)propanamide] | 100 to 1000 | –
Cc1ccccc1S(=O)(=O)NC(=O)N[C@@H](Cc1ccccc1)C(=O)N(C)c1ccc2ncccc2c1 [Example CA-71, (S)—N-methyl-3-phenyl-N-(quinolin-6-yl)-2-(3-(o-tolylsulfonyl)ureido)propanamide] | < 100 | –
Cc1ccc2cc(N(C)C(=O)[C@H](Cc3ccccc3)NC(=O)NS(=O)(=O)c3ccccc3C)ccc2n1 [Example CA-72, (S)—N-methyl-N-(2-methylquinolin-6-yl)-3-phenyl-2-(3-(o-tolylsulfonyl)ureido)propanamide] | < 100 | 30
Cc1ccccc1S(=O)(=O)NC(=O)N[C@@H](Cc1ccccc1)C(=O)N(C)c1ccc2ncn(C)c2c1 [Example CA-73, (S)—N-methyl-N-(1-methyl-H-benzo[d]imidazol-6-yl)-3-phenyl-2-(3-(o-tolylsulfonyl)ureido)propanamide] | 100 to 1000 | –
CCn1c(C)nc2cc(N(C)C(=O)[C@H](Cc3ccccc3)NC(=O)NS(=O)(=O)c3ccccc3C)ccc21 [Example CA-74, (S)—N-(1-ethyl-2-methyl-1H-benzo[d]imidazol-5-yl)-N-methyl-3-phenyl-2-(3-(o-tolylsulfonyl)ureido)propanamide] | 1000 to 10000 | 2030
Cc1ccccc1S(=O)(=O)NC(=O)N[C@@H](Cc1ccccc1)C(=O)N(C)c1ccc2nccnc2c1 [Example CA-75, (S)—N-methyl-3-phenyl-N-(quinoxalin-6-yl)-2-(3-(o-tolylsulfonyl)ureido)propanamide] | 100 to 1000 | –
Cc1ccccc1S(=O)(=O)NC(=O)N[C@@H](Cc1ccccc1)C(=O)N(C)c1ccc2c(c1)CCO2 [Example CA-76, (S)—N-(2,3-dihydrobenzofuran-5-yl)-N-methyl-3-phenyl-2-(3-(o-tolylsulfonyl)ureido)propanamide] | < 100 | –
COc1ccc(N(C)C(=O)[C@H](Cc2ccccc2)NC(=O)NS(=O)(=O)c2ccccc2C)cc1C [Example CA-77, (S)—N-(4-methoxy-3-methylphenyl)-N-methyl-3-phenyl-2-(3-(o-tolylsulfonyl)ureido)propanamide] | < 100 | –
CCN(C(=O)[C@H](Cc1ccccc1)NC(=O)NS(=O)(=O)c1ccccc1C)c1ccc(OC)c(C)c1 [Example CA-78, (S)—N-ethyl-N-(4-methoxy-3-methylphenyl)-3-phenyl-2-(3-(o-tolylsulfonyl)ureido)propanamide] | 100 to 1000 | 120
Cc1ccccc1S(=O)(=O)NC(=O)N[C@@H](Cc1ccccc1)C(=O)N(C)c1ccc2c(c1)CCCO2 [Example CA-79, (S)—N-(chroman-6-yl)-N-methyl-3-phenyl-2-(3-(o-tolylsulfonyl)ureido)propanamide] | < 100 | –
CCN(C(=O)[C@H](Cc1ccccc1)NC(=O)NS(=O)(=O)c1ccccc1C)c1ccc2ncccc2c1 [Example CA-80, (S)—N-ethyl-3-phenyl-N-(quinolin-6-yl)-2-(3-(o-tolylsulfonyl)ureido)propanamide] | < 100 | 30
CCN(C(=O)[C@H](Cc1ccccc1)NC(=O)NS(=O)(=O)c1ccccc1C)c1ccc2c(c1)CCCO2 [Example CA-81, (S)—N-(chroman-6-yl)-N-ethyl-3-phenyl-2-(3-(o-tolylsulfonyl)ureido)propanamide] | < 100 | 40
